Data set [1] concerns adrenal axis (first-in-morning serum cortisol). In words: First-in-morning serum cortisol (adrenal suppression biomarker), MAD. In kind it is in vivo. The method, then:
All biomarkers were analyzed using standard immunoassays by PRA.
Adrenal suppression is the consequence of a negative feedback loop between high circulating cortisol and pharmacological glucocorticoids and adrenal function, leading to loss of responsiveness of the adrenal cortex to ACTH. Adrenal suppression can be seen both acutely (hours after a single dose of pharmacological glucocorticoids), and chronically. Chronic treatment with glucocorticoids leads to chronic deficiencies in multiple steroidal hormones, including cortisol, testosterone, 17-hydroxyprogesterone, corticosterone, and 11-deoxycortisol. The resulting hormonal imbalance puts patients at increased risk for a series of safety concerns. One is adrenal crisis (inability to mount a cortisol stress response after trauma, severe illness, or surgery, with ensuring risk for shock and death). Other safety concerns in children include delay of puberty and growth stunting. Adrenal suppression can be measured with first-in-morning serum cortisol, reflective of the endogenous diurnal cortisol peak pre-awakening. Measurement of first-in-morning cortisol 24 h after the last drug dose indicates whether the drug has suppressed the normal diurnal cortisol response.
First in morning serum cortisol levels were measured in all Phase 1 MAD subjects, at baseline prior to first administration of vamorolone or placebo, 24 h after the first dose (acute suppression), and 24 h after 14 days of daily dosing (chronic suppression) (Fig. 4). The two placebo subjects from each dose group were combined into the same panel. […] At 9.0 mg/kg/day, there was a decline in morning cortisol in all subjects, with 1 subject below the 3.6 µg/dL after first dose, and 3 of 6 subjects after two weeks of daily dosing. […] One subject stopped dosing due to mild elevation of liver enzymes, and their morning cortisol returned to normal levels within a few days of cessation of dosing (Fig. 4). Direct head-to-head comparisons to prednisone-treated subjects were not done in this Phase 1 trial, but approximate comparisons can be done to published literature. Both Fleishaker et al. and we tested serum cortisol 24 h after the first dose of drug. Fleishaker et al. studied doses of 2.5, 5, 10, 20 mg, 40 mg, and 60 mg, with an average weight of subjects of 80 kg. […] For vamorolone, the dose groups showing decreases in morning cortisol 24 h after the initial dose were 3 mg/kg (9 µg/dL cortisol), 9 mg/kg (6 µg/dL cortisol), and 20 mg/kg (4 µg/dL cortisol). […] Two week prednisone treatment data for morning cortisol was not published.

A short description of data set [2]: Clinical safety (treatment-emergent adverse events), SAD. Format: in vivo, human. The method, then: In the SAD part of the study, 7 cohorts were to be enrolled. Eight subjects were assigned to each of Cohorts 1 to 5 and 7 and received a single oral dose of vamorolone (planned as 0.1 mg/kg, 0.3 mg/kg, 1.0 mg/kg, 3.0 mg/kg, 8.0 mg/kg, and 20.0 mg/kg, respectively) or placebo under fasted conditions. Six subjects were assigned to Cohort 6 and were administered a single oral dose of 8.0 mg/kg vamorolone within 30 min of beginning a high fat/high calorie meal.
Subjects in Cohorts 1 through 5 and 7 were randomized to receive vamorolone or placebo in a 3:1 ratio (6 subjects received vamorolone, and 2 subjects received placebo) sequentially. In Cohort 1, 3 sentinel subjects were administered vamorolone or placebo in a 2:1 ratio. Following a review of sentinel safety and tolerability data (including reported adverse events [AEs], clinical laboratory tests, vital signs, and electrocardiograms [ECGs]), the remaining 5 subjects were randomized to receive vamorolone or placebo in a 4:1 ratio and dosed no earlier than 48 h after sentinel dosing. In Cohorts 2 to 5, and 7, subjects were administered vamorolone or placebo in a 3:1 ratio. Once Cohort 5 was completed and safety data had been reviewed, subjects in Cohort 6 were administered a single oral dose of 8.0 mg/kg vamorolone within 30 min of beginning a standard high fat/high calorie meal.
After completion of all scheduled safety follow-up visits for a given cohort, a Safety Review Committee (SRC), comprised of the Principal Investigator (PI), the Sponsor’s Medical Monitor, and the Sponsor’s pharmacokineticist, reviewed all available PK and safety data (AEs, physical examination findings, ECGs, vital signs, and clinical laboratory tests) in a blinded manner for the completed cohort prior to making a decision to escalate to the next higher dose level.
In the SAD part, overall, six subjects (11%) administered vamorolone experienced a total of 10 treatment-emergent adverse events (TEAEs); no subject in the placebo group experienced any TEAEs. There was no dose-related trend in the incidence or severity of TEAEs; the dose group with the highest number of subjects reporting TEAEs was the 0.1 mg/kg dose group (2 subjects, 33%), and the highest number of TEAEs (3 events) was reported by 1 subject in the 1.0 mg/kg vamorolone dose group. In the 0.3 and 3.0 mg/kg vamorolone fasted and the 8.0 mg/kg fed dose groups, 1 subject per group (17%) experienced TEAEs, and no subjects in the 8.0 mg/kg and 20 mg/kg, fasted, dose groups experienced any TEAEs. The most common TEAEs were dizziness and headache, each reported by 2 subjects overall (4%); all other TEAEs were reported by only 1 subject (2%) and included ear pain, nausea, non-cardiac chest pain, and blood bilirubin increased. Three subjects (6%) had TEAEs that were considered possibly related to treatment. Possibly related TEAEs included nausea (1 subject, 2%), dizziness (2 subjects, 4%), and headache (2 subjects, 4%). […] All other TEAEs were mild in severity.

Consider `C[C@@H]1C[C@H]2[C@@H]3CCC4=CC(=O)C=C[C@]4(C)C3=CC[C@]2(C)[C@@]1(O)C(=O)CO` [vamorolone], for which the “subjects with morning cortisol below 3.6 µg/dL (adrenal suppression)” value in data set [1] (9.0 mg/kg/day, after first dose, n = 6) is given as 1 subjects; in data set [1] (9.0 mg/kg/day, after two weeks of daily dosing) it was 3 of 6; in data set [1] (20.0 mg/kg/day, after a single dose), 4 of 6; in data set [1] (20.0 mg/kg/day, after two weeks of dosing), 5/5. Further, in data set [1] (1.0 or 3.0 mg/kg/day dose groups, acute and 14 days), the adrenal suppression result is “No evidence of adrenal suppression”. Further, in data set [1] (24 h after the first dose, vamorolone data vs published prednisone data (ref 6)), the “difference in potency for acute adrenal suppression (prednisone > vamorolone)” value came to 10 fold. Further, the “adrenal suppression potency relative to traditional glucocorticoids” value in data set [1] (seen at 9.0 and 20.0 mg/kg/day) is ~ 1%. The “subjects reporting TEAEs” value in data set [2] (SAD 0.1 mg/kg (2 subjects)) worked out at 33%. In addition, the “subjects experiencing TEAEs” value is 17% in data set [2] (SAD 0.3 mg/kg fasted (1 subject)); 17% in data set [2] (SAD 3.0 mg/kg fasted (1 subject)); “no subjects” in data set [2] (SAD 8.0 mg/kg fasted); 17% in data set [2] (SAD 8.0 mg/kg fed (1 subject)); “no subjects” in data set [2] (SAD 20 mg/kg fasted). In data set [2] (SAD 1.0 mg/kg, reported by 1 subject), the “number of TEAEs” value came out at 3 events. Also, the “subjects experiencing TEAEs, overall” value in data set [2] (SAD, all dose groups (six subjects, 10 TEAEs)) came to 11%.
